What all share (assay): Kinase inhibitor library screening, PrestoBlue cell viability, 1 or 10 μM, 72 h
Assay [1] deals with 501Mel-XP cells (Vemurafenib-resistant). As to conditions: for viability at 1 µM / viability at 10 µM: Homo sapiens; for viability at 1 µM: read-out: cell viability, 501Mel XP, 1μΜ; for viability at 10 µM: read-out: cell viability, 501Mel XP, 10μΜ.
The subject of assay [2] is IGR37-XP cells (Vemurafenib-resistant). Particulars: for viability at 1 µM / viability at 10 µM: Homo sapiens, IGR-37, 72 h; for viability at 1 µM: read-out: cell viability, IGR37 XP, 1μΜ; for viability at 10 µM: read-out: cell viability, IGR37 XP, 10μΜ.
For a further assay, the system named is 501Mel cells (parental). As to conditions: for viability at 1 µM / viability at 10 µM: Homo sapiens; for viability at 1 µM: read-out: cell viability, 501Mel Parental, 1μΜ; for viability at 10 µM: read-out: cell viability, 501Mel Parental, 10μΜ. Put shortly: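 Each compound was applied to parental melanoma cells and to derivatives made resistant to Vemurafenib or Dabrafenib. After treatment, viability was read with PrestoBlue on a plate reader and expressed as % of untreated cells, with each line run at least in duplicate.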

For the next assay, the system named is IGR37 cells (parental). Particulars: for viability at 1 µM / viability at 10 µM: Homo sapiens, IGR-37, 72 h; for viability at 1 µM: read-out: cell viability, IGR37 Parental, 1μΜ; for viability at 10 µM: read-out: cell viability, IGR37 Parental, 10μΜ.
Another assay concerns A375 cells (parental). Particulars: for viability at 1 µM / viability at 10 µM: Homo sapiens, A-375, 72 h; for viability at 1 µM: read-out: cell viability, A375 Parental, 1μΜ; for viability at 10 µM: read-out: cell viability, A375 Parental, 10μΜ.
The subject of assay [3] is A375-GP cells (Dabrafenib-resistant). As to conditions: for viability at 1 µM / viability at 10 µM: Homo sapiens, A-375, 72 h; for viability at 1 µM: read-out: cell viability, A375 GP, 1μΜ; for viability at 10 µM: read-out: cell viability, A375 GP, 10μΜ.
Assay [4] has as its system 501Mel-GP cells (Dabrafenib-resistant). As to conditions: for viability at 1 µM / viability at 10 µM: Homo sapiens; for viability at 1 µM: read-out: cell viability, 501Mel GP, 1μΜ; for viability at 10 µM: read-out: cell viability, 501Mel GP, 10μΜ.
The subject of assay [5] is A375-XP cells (Vemurafenib-resistant). As to conditions: for viability at 1 µM / viability at 10 µM: Homo sapiens, A-375, 72 h; for viability at 1 µM: read-out: cell viability, A375 XP, 1μΜ; for viability at 10 µM: read-out: cell viability, A375 XP, 10μΜ.
The test system of assay [6] is IGR37-GP cells (Dabrafenib-resistant). As to conditions: for viability at 1 µM / viability at 10 µM: Homo sapiens, IGR-37, 72 h; for viability at 1 µM: read-out: cell viability, IGR37 GP, 1μΜ; for viability at 10 µM: read-out: cell viability, IGR37 GP, 10μΜ.

In the case of `O=C1NC(=O)[C@@H](c2cn3c4c(cccc24)CCC3)[C@@H]1c1c[nH]c2ccccc12` [ARQ 197 (Tivantinib)], the “cell viability (kinase inhibitor library screening)” value in assay [1] (501Mel XP, 1μΜ, 72 h) was found to be 25.8%; in assay [1] (501Mel XP, 10μΜ, 72 h), 10.6%; in [2] (IGR37 XP, 1μΜ, 72 h), 69.4%; in [2] (IGR37 XP, 10μΜ, 72 h), 43.0%; in the assay on 501Mel cells (parental) (501Mel Parental, 1μΜ, 72 h) it was 52.2%; in the assay on 501Mel cells (parental) (501Mel Parental, 10μΜ, 72 h), 26.1%. In addition, the “cell viability (kinase inhibitor library screening)” value stood at 79.8% in the assay with IGR37 cells (parental) (IGR37 Parental, 1μΜ, 72 h); 16.2% in the assay with IGR37 cells (parental) (IGR37 Parental, 10μΜ, 72 h); 29.2% in the assay on A375 cells (parental) (A375 Parental, 10μΜ, 72 h); 26.4% in the assay on A375 cells (parental) (A375 Parental, 1μΜ, 72 h); 30.6% in assay [3] (A375 GP, 1μΜ, 72 h); 32.9% in assay [3] (A375 GP, 10μΜ, 72 h). Further, the “cell viability (kinase inhibitor library screening)” value in [4] (501Mel GP, 1μΜ, 72 h) amounted to 40.8%; in [4] (501Mel GP, 10μΜ, 72 h) it was 25.6%; in assay [5] (A375 XP, 1μΜ, 72 h), 34.5%; in assay [5] (A375 XP, 10μΜ, 72 h), 24.5%; in assay [6] (IGR37 GP, 1μΜ, 72 h), 85.1%; in assay [6] (IGR37 GP, 10μΜ, 72 h) it was 73.0%.

Regarding `CN(C)CCOc1ccc(-c2nc(-c3ccncc3)c(-c3ccc4c(c3)CC/C4=N\O)[nH]2)cc1` [SB590885], the “cell viability (kinase inhibitor library screening)” value in assay [1] (501Mel XP, 1μΜ, in %) came to 121.3; in [1] (501Mel XP, 10μΜ, in %), 0.7; in [2] (IGR37 XP, 10μΜ, in %), 30.0; in the assay with 501Mel cells (parental) (501Mel Parental, 1μΜ, in %), 74.7; in the assay with 501Mel cells (parental) (501Mel Parental, 10μΜ, in %) it was 0.649; in the assay with IGR37 cells (parental) (IGR37 Parental, 1μΜ, in %), 52.0. Besides, the “cell viability (kinase inhibitor library screening)” value in the assay with IGR37 cells (parental) (IGR37 Parental, 10μΜ, in %) is 40.7; in the assay on A375 cells (parental) (A375 Parental, 1μΜ, in %) it was 38.0; with A375 cells (parental) (A375 Parental, 10μΜ, in %), 33.1; in assay [3] (A375 GP, 1μΜ, in %), 73.8; in [3] (A375 GP, 10μΜ, in %), 25.8; in [4] (501Mel GP, 1μΜ, in %), 110.5. For the same compound, the “cell viability (kinase inhibitor library screening)” value in assay [4] (501Mel GP, 10μΜ, in %) came to 0.56; in assay [5] (A375 XP, 1μΜ, in %), 71.7; in [5] (A375 XP, 10μΜ, in %) it was 18.9; in assay [6] (IGR37 GP, 10μΜ, in %), 79.6.

For `Oc1ccc(-c2nc(-c3ccncc3)c(-c3ccc(F)cc3)[nH]2)cc1` [SB 202190], the “Cell viability in kinase inhibitor library screening, 501Mel XP, 1μΜ” value in assay [1] (501Mel XP, 1μΜ, 72 h, in %) is on record as 98.4. Also, the “Cell viability in kinase inhibitor library screening, 501Mel XP, 10μΜ” value in assay [1] (501Mel XP, 10μΜ, 72 h, in %) was found to be 74.6. In assay [2] (IGR37 XP, 10μΜ, 72 h), this compound gave a Cell viability in kinase inhibitor library screening, IGR37 XP, 10μΜ of 56.3%. Further, in assay [2] (IGR37 XP, 1μΜ, 72 h, in %), the “Cell viability in kinase inhibitor library screening, IGR37 XP, 1μΜ” value was 103.1. The “Cell viability in kinase inhibitor library screening, 501Mel Parental, 1μΜ” value in the assay on 501Mel cells (parental) (501Mel Parental, 1μΜ, 72 h, in %) worked out at 105.7. For the same compound, the “Cell viability in kinase inhibitor library screening, 501Mel Parental, 10μΜ” value in the assay on 501Mel cells (parental) (501Mel Parental, 10μΜ, 72 h, in %) came to 89.1. Besides, the “Cell viability in kinase inhibitor library screening, IGR37 Parental, 1μΜ” value with IGR37 cells (parental) (IGR37 Parental, 1μΜ, 72 h, in %) is 118.8. For the same compound, in the assay with IGR37 cells (parental) (IGR37 Parental, 10μΜ, 72 h, in %), the “Cell viability in kinase inhibitor library screening, IGR37 Parental, 10μΜ” value was 83.2. In addition, in the assay with A375 cells (parental) (A375 Parental, 10μΜ, 72 h), the “Cell viability in kinase inhibitor library screening, A375 Parental, 10μΜ” value is reported as 64.6. Further, the “Cell viability in kinase inhibitor library screening, A375 Parental, 1μΜ” value in the assay with A375 cells (parental) (A375 Parental, 1μΜ, 72 h) was 114.0. In addition, the “Cell viability in kinase inhibitor library screening, A375 GP, 1μΜ” value in assay [3] (A375 GP, 1μΜ, 72 h) was found to be 105.4. Further, the “Cell viability in kinase inhibitor library screening, A375 GP, 10μΜ” value in assay [3] (A375 GP, 10μΜ, 72 h) was determined as 98.4. Besides, in [4] (501Mel GP, 1μΜ, 72 h, in %), the “Cell viability in kinase inhibitor library screening, 501Mel GP, 1μΜ” value was 108.3. For the same compound, in assay [4] (501Mel GP, 10μΜ, 72 h, in %), the “Cell viability in kinase inhibitor library screening, 501Mel GP, 10μΜ” value was 90.0. Further, the “Cell viability in kinase inhibitor library screening, A375 XP, 10μΜ” value in [5] (A375 XP, 10μΜ, 72 h) was 98.7. Also, the Cell viability in kinase inhibitor library screening, IGR37 GP, 10μΜ in assay [6] (IGR37 GP, 10μΜ, 72 h) came out at 85.3%. The “Cell viability in kinase inhibitor library screening, IGR37 GP, 1μΜ” value in assay [6] (IGR37 GP, 1μΜ, 72 h, in %) is 104.9.

`Oc1c2ccccc2c2c3c(cccc13)N=N2` [SP600125]: the viability at 1 µM is 94.3% in assay [1] (72 h); 96.5% in assay [2]; 107% with 501Mel cells (parental) (72 h); 98.4% with IGR37 cells (parental); 102% in the assay with A375 cells (parental); 98.3% in assay [3]. Also, the figures for the viability at 1 µM in [4] (72 h), in [5] and in assay [6] were 95.4%, 103% and 92.5%, respectively. For the same compound, the viability at 10 µM was 54.5% in assay [1] (72 h); 45.8% in assay [2]; 75.1% with 501Mel cells (parental) (72 h); 70.6% with IGR37 cells (parental); 79.2% in the assay with A375 cells (parental); 83.9% in assay [3]. The figures for the viability at 10 µM in [4] (72 h), in assay [5] and in [6] were 66.8%, 91.5% and 74.4%, respectively.

Regarding `COc1cc(Nc2ncc(F)c(Nc3ccc4c(n3)N(COP(=O)([O-])[O-])C(=O)C(C)(C)O4)n2)cc(OC)c1OC.[Na+].[Na+]`, the “cell viability (kinase inhibitor library screening)” value is recorded as 98.8 in assay [1] (501Mel XP, 1μΜ, in %); 37.9 in [1] (501Mel XP, 10μΜ, in %); 94.1 in assay [2] (IGR37 XP, 1μΜ, in %); 20.4 in assay [2] (IGR37 XP, 10μΜ, in %); 84.1 in the assay with 501Mel cells (parental) (501Mel Parental, 10μΜ, in %); 103.8 in the assay with IGR37 cells (parental) (IGR37 Parental, 1μΜ, in %). For the same compound, the “cell viability (kinase inhibitor library screening)” value in the assay on IGR37 cells (parental) (IGR37 Parental, 10μΜ, in %) is 87.6; in the assay with A375 cells (parental) (A375 Parental, 10μΜ, in %) it was 56.1; in assay [3] (A375 GP, 1μΜ, in %), 95.3; in assay [3] (A375 GP, 10μΜ, in %), 57.6; in assay [4] (501Mel GP, 1μΜ, in %), 98.3; in [4] (501Mel GP, 10μΜ, in %), 70.8. In addition, the “cell viability (kinase inhibitor library screening)” value amounted to 70.0 in assay [5] (A375 XP, 10μΜ, in %); 89.3 in assay [6] (IGR37 GP, 1μΜ, in %); 37.8 in assay [6] (IGR37 GP, 10μΜ, in %).

As to `Cc1cc(Nc2nc(N[C@@H](C)c3ccc(F)cc3)c(C#N)cc2F)[nH]n1` [AZ 960], the viability at 1 µM in [1] (72 h) stood at 39.4%; in [2] it was 81.1%; with 501Mel cells (parental) (72 h), 49.1%; in the assay on IGR37 cells (parental), 83.9%; with A375 cells (parental) it was 48.9%; in assay [3], 44%. In addition, the viability at 1 µM came to 34.2% in assay [4] (72 h), 61.3% in [5] and 87.2% in assay [6]. The viability at 10 µM in assay [1] (72 h) was 60.4%; in [2], 39.7%; in the assay with 501Mel cells (parental) (72 h), 65.1%; in the assay on IGR37 cells (parental), 90.7%; in the assay with A375 cells (parental), 40%; in assay [3], 37.8%. The viability at 10 µM in [4] (72 h) came out at 66.8%; in assay [5], 46.1%; in [6], 73.9%.

A word on the viability: it is a read-out of living cells in per cent, often relative to untreated cells.

Values taken from publication PMC6364417, “Kinase inhibitor library screening identifies synergistic drug combinations effective in sensitive and resistant melanoma cells” (Journal of Experimental & Clinical Cancer Research : CR, 2019).
